# Experimental data: ChEMBL document CHEMBL1275321, “Synthesis and antitumor activity of novel 6-aryl and 6-alkylpyrazolo[3,4-d]pyrimidin-4-one derivatives” (Eur J Med Chem, 2010)
# Tested on: HCT-116
# Assay: Cytotoxicity against human HCT116 cells after 48 hrs by sulforhodamine B assay
# Type: functional, cell-based
# Settings: HCT-116, 48 h
row,Structure (SMILES),IC50 [µg/mL]
1,CSc1nn(-c2ccccc2)c2c1C(=O)NC(c1ccccc1)N2 (configuration not stated),2.4
2,CSc1nn(-c2ccccc2)c2nc(-c3cccc([N+](=O)[O-])c3)[nH]c(=O)c12,0.67
3,COc1ccc(NCc2nc3c(c(SC)nn3-c3ccccc3)c(=O)[nH]2)cc1,2.7
4,CSc1nn(-c2ccccc2)c2nc(CNc3ccc(S(N)(=O)=O)cc3)[nH]c(=O)c12,3.09
5,CSc1nn(-c2ccccc2)c2nc(CCNC3CCCCC3)[nH]c(=O)c12,0.47
6,CSc1nn(-c2ccccc2)c2nc(CCNc3ccccc3)[nH]c(=O)c12,1.34
7,CSc1nn(-c2ccccc2)c2nc(CCNc3ccc(S(N)(=O)=O)cc3)[nH]c(=O)c12,2.82
